# Legend:
# [1] = tested on: Echinochloa oryzoides (Ard.) Fritsch.; assay: Preemergence weed control under flooded paddy conditions, ECHORC (Watergrass (Calif.)); type: in vivo; settings: preemergence, flooded paddy; for herbicidal effect rating, ECHORC: rated 3-4 weeks after treatment; for ECHORC herbicidal effect rating: rated three to four weeks after treatment
# Cyperus iria = assay: Preemergence weed control under flooded paddy conditions, CYPIR (Rice Flatsedge); type: in vivo; settings: preemergence, flooded paddy; for herbicidal effect rating, CYPIR: rated 3-4 weeks after treatment; for CYPIR herbicidal effect rating: rated three to four weeks after treatment
# [2] = tested on: Cyperus serotinus, Rottb.; assay: Preemergence weed control under flooded paddy conditions, CYPSE (Flatsedge); type: in vivo; settings: preemergence; for herbicidal effect rating, CYPSE: rated 3-4 weeks after treatment; for CYPSE herbicidal effect rating: rated three to four weeks after treatment
# [3] = tested on: Monochoria vaginalis, Presl.; assay: Preemergence weed control under flooded paddy conditions, MOOVA (Monochoria); type: in vivo; settings: preemergence, flooded paddy; for herbicidal effect rating, MOOVA: rated 3-4 weeks after treatment; for MOOVA herbicidal effect rating: rated three to four weeks after treatment
# Sagittaria pygmaea, L. = assay: Preemergence weed control under flooded paddy conditions, SAGPY (Arrowhead (Pygmaea)); type: in vivo; settings: preemergence, flooded paddy; for herbicidal effect rating, SAGPY: rated 3-4 weeks after treatment; for SAGPY herbicidal effect rating: rated three to four weeks after treatment
# [4] = tested on: Oryza sativa, (L.) Tebonnet; settings: in vivo; for herbicidal effect rating ORYSAT: meaning of each grade not given here
smiles,measurement,setting,value
"Cc1ccc(OCC(=O)c2ccccc2)c(-c2nsc3ccc(-n4c(=O)cc(C(F)(F)F)n(C)c4=O)cc23)c1 [Example 537, 2,4(1H,3H)-Pyrimidinedione, 1-methyl-3-{3-[6-(phenacyloxy)-m-tolyl]-1,2-benzisothiazol-5-yl}-6-(trifluoromethyl)-]","herbicidal effect rating, ECHORC",[1]; Rate 0.0320 kg/ha,3.4
same,"herbicidal effect rating, ECHORC",[1]; Rate 0.0620 kg/ha,4.4
same,"herbicidal effect rating, ECHORC",[1]; Rate 0.1250 kg/ha,5.0
same,"herbicidal effect rating, ECHORC",[1]; Rate 0.2500 kg/ha,9.0
same,"herbicidal effect rating, ECHORC",[1]; Rate 0.5000 kg/ha,9.0
same,"herbicidal effect rating, CYPIR",Cyperus iria; Rate 0.0320 kg/ha,0.0
same,"herbicidal effect rating, CYPIR",Cyperus iria; Rate 0.0620 kg/ha,0.0
same,"herbicidal effect rating, CYPIR",Cyperus iria; Rate 0.1250 kg/ha,1.0
same,"herbicidal effect rating, CYPIR",Cyperus iria; Rate 0.2500 kg/ha,4.0
same,"herbicidal effect rating, CYPIR",Cyperus iria; Rate 0.5000 kg/ha,9.0
same,"herbicidal effect rating, CYPSE",[2]; Rate 0.0320 kg/ha,0.0
same,"herbicidal effect rating, CYPSE",[2]; Rate 0.0620 kg/ha,0.0
same,"herbicidal effect rating, CYPSE",[2]; Rate 0.1250 kg/ha,0.0
same,"herbicidal effect rating, CYPSE",[2]; Rate 0.2500 kg/ha,0.0
same,"herbicidal effect rating, CYPSE",[2]; Rate 0.5000 kg/ha,0.0
same,"herbicidal effect rating, MOOVA",[3]; Rate 0.0320 kg/ha,9.0
same,"herbicidal effect rating, MOOVA",[3]; Rate 0.0620 kg/ha,9.0
same,"herbicidal effect rating, MOOVA",[3]; Rate 0.1250 kg/ha,9.0
same,"herbicidal effect rating, MOOVA",[3]; Rate 0.2500 kg/ha,9.0
same,"herbicidal effect rating, MOOVA",[3]; Rate 0.5000 kg/ha,9.0
same,"herbicidal effect rating, SAGPY","Sagittaria pygmaea, L.; Rate 0.0320 kg/ha",0.0
same,"herbicidal effect rating, SAGPY","Sagittaria pygmaea, L.; Rate 0.0620 kg/ha",0.0
same,"herbicidal effect rating, SAGPY","Sagittaria pygmaea, L.; Rate 0.1250 kg/ha",0.0
same,"herbicidal effect rating, SAGPY","Sagittaria pygmaea, L.; Rate 0.2500 kg/ha",0.0
same,"herbicidal effect rating, SAGPY","Sagittaria pygmaea, L.; Rate 0.5000 kg/ha",0.0
same,herbicidal effect rating ORYSAT,[4],0.0
"Cn1c(C(F)(F)F)cc(=O)n(-c2ccc3snc(CC=NO)c3c2)c1=O [Example 266, 1,2-Benzisothiazole-3-acetaldehyde, 5-[3,6-dihydro-3-methyl-2,6-dioxo-4-(trifluoromethyl)-1(2H)-pyrimidinyl]-, 3-oxime, (E)- and (Z)-]",ECHORC herbicidal effect rating,[1]; Rate 0.0320 kg/ha,0.0
same,ECHORC herbicidal effect rating,[1]; Rate 0.0620 kg/ha,0.0
same,ECHORC herbicidal effect rating,[1]; Rate 0.1250 kg/ha,0.0
same,ECHORC herbicidal effect rating,[1]; Rate 0.2500 kg/ha,0.0
same,CYPIR herbicidal effect rating,Cyperus iria; Rate 0.0320 kg/ha,5.0
same,CYPIR herbicidal effect rating,Cyperus iria; Rate 0.0620 kg/ha,5.0
same,CYPIR herbicidal effect rating,Cyperus iria; Rate 0.1250 kg/ha,5.0
same,CYPIR herbicidal effect rating,Cyperus iria; Rate 0.2500 kg/ha,9.0
same,CYPSE herbicidal effect rating,[2]; Rate 0.0320 kg/ha,0.0
same,CYPSE herbicidal effect rating,[2]; Rate 0.0620 kg/ha,0.0
same,CYPSE herbicidal effect rating,[2]; Rate 0.1250 kg/ha,0.0
same,CYPSE herbicidal effect rating,[2]; Rate 0.2500 kg/ha,3.0
same,MOOVA herbicidal effect rating,[3]; Rate 0.0320 kg/ha,9.0
same,MOOVA herbicidal effect rating,[3]; Rate 0.0620 kg/ha,9.0
same,MOOVA herbicidal effect rating,[3]; Rate 0.1250 kg/ha,9.0
same,MOOVA herbicidal effect rating,[3]; Rate 0.2500 kg/ha,9.0
same,SAGPY herbicidal effect rating,"Sagittaria pygmaea, L.; Rate 0.0320 kg/ha",0.0
same,SAGPY herbicidal effect rating,"Sagittaria pygmaea, L.; Rate 0.0620 kg/ha",0.0
same,SAGPY herbicidal effect rating,"Sagittaria pygmaea, L.; Rate 0.1250 kg/ha",0.0
same,SAGPY herbicidal effect rating,"Sagittaria pygmaea, L.; Rate 0.2500 kg/ha",0.0
same,ORYSAT herbicidal effect rating,[4],0.0

# — patent EP0908457B1, “3-(1,2-benzisothiazol- and isoxazol-5-Y1)-2,4(1H,3H)-pyrimidinedione or thione and 3-(1,2-benzisothiazol- and isoxazol-5-y1)-4(3H)-pyrimidinone or thione herbicidal agents” (BASF AKTIENGESELLSCHAFT, priority 1997, dated 1999)
